US4435404A, “Carbostyril derivatives” (priority 1980, dated 1984)
Read-outs that look alike come from different tables or passages of the source.

How the values were obtained:
Acute Toxicity Test = conditions: mouse, in vivo; male mice, oral administration
Experimental: The test compounds were administered orally to the mice and LD50 (mg/kg) of the compounds was determined.

[1] = system: collagen-induced aggregation in rabbit platelet; assay: Inhibition effect on collagen-induced aggregation in rabbit platelet; format: cell-based; conditions: for inhibition at 100 µM / inhibition at 10 µM / inhibition at 1 µM / inhibition at 0.1 µM: Oryctolagus cuniculus, Platelet, read-out: Inhibition effect on collagen-induced aggregation
Experimental: (§1) The platelet aggregation inhibitory effect is measured by using AG-II aggregometer (manufactured by Bryston Manufacturing Co.). The blood sample used for the test is a 1/9 (by volume) mixture of sodium citrate and whole blood collected from rabbit. Said sample is subjected to 10-minute centrifugal separation at 1,000 r.p.m. to obtain a platelet rich plasma (PRP). The thus obtained PRP is separated, and the remaining blood sample is further subjected to 15-minute centrifugal separation at 3,000 r.p.m. to obtain a platelet poor plasma (PPP).
(§2) The number of platelets in the PRP is counted by the Brecher-Clonkite Method, and the PRP is diluted with the PPP to prepare a PRP sample with platelet concentration of 300,000/mm^3 for the adenosine diphosphate (ADP)-induced aggregation test. There is also prepared a PRP sample with platelet concentration of 450,000/mm^3 for the collagen-induced aggregation test.
(§3) 0.6 Milliliter of said PRP sample is added into 0.01 ml of a solution of a test compound of a predetermined concentration and the mixture is placed in a 37° C. thermostat for one minute. Then 0.07 ml of an ADP or collagen solution is added to the mixture. Transmittance of this mixture is determined and the change of transmittance is recorded by using the aggregometer at stirrer speed of 1,100 r.p.m. […] The ADP solution is adjusted to a concentration of 7.5×10^-5 M, and the collagen solution is prepared by triturating 100 mg of collagen with 5 ml of said buffer and the supernatant is used as collagen inducer. Acetylsalicylic acid is used as control for the ADP-induced aggregation test and the collagen-induced aggregation test, respectively. The platelet aggregation inhibitory effect is measured in terms of percent inhibition with respect to the aggregation rate of the controls. The aggregation rate is calculated from the following formula:
(§4) Aggregation rate=[(c-a)/(b-a)]×100
(§5) b: transmittance of PRP containing a test compound and an aggregation inducer

[2] = system: ADP-induced aggregation in rabbit platelet; assay: Inhibition effect on ADP-induced aggregation in rabbit platelet; format: cell-based; conditions: for inhibition at 100 µM / inhibition at 10 µM / inhibition at 1 µM / inhibition at 0.1 µM: Oryctolagus cuniculus, Platelet; for inhibition at 10 µM / inhibition at 1 µM / inhibition at 0.1 µM: read-out: Inhibition effect on ADP-induced aggregation; for inhibition at 0.1 µM: concentration of the test compound solution 10^-7 mole
Experimental: as §1, §2, §3, §4, §5

[3] = concentration of the test compound solution 10^-4 mole
[4] = concentration of the test compound solution 10^-5 mole
[5] = concentration of the test compound solution 10^-6 mole
[6] = concentration of the test compound solution 10^-7 mole

CN(Cc1cccs1)C(=O)CCCOc1ccc2[nH]c(=O)ccc2c1 [No. 5, 6-{3-[N-Methyl-N-(2-thienylmethyl)aminocarbonyl]propoxy}carbostyril]
LD50 (Acute Toxicity Test): > 1000 mg/kg | inhibition at 100 µM [1, 3]: 85.7% | inhibition at 10 µM [1, 4]: 30.7% | inhibition at 100 µM [2, 3]: 100% | inhibition at 10 µM [2, 4]: 54.7% | inhibition at 1 µM [2, 5]: 7.1%

CCC(O)CN(CC1CCCCC1)C(=O)CCCCOc1ccc2c(c1)CCC(=O)N2 (centres unmarked) [No. 7, 6-{4-[N-(2-Hydroxybutyl)-N-cyclohexylmethylaminocarbonyl]butoxy}-3,4-dihydrocarbostyril]
LD50 (Acute Toxicity Test): > 1000 mg/kg | inhibition at 10 µM [1, 4]: 100% | inhibition at 1 µM [1, 5]: 13.3% | inhibition at 100 µM [2, 3]: 100% | inhibition at 10 µM [2, 4]: 64.3% | inhibition at 1 µM [2, 5]: 18.6%

O=C1CCc2cc(OCCCCC(=O)N(CCCCO)CC3CCCCC3)ccc2N1 [No. 8, 6-{4-[N-(4-Hydroxybutyl)-N-cyclohexylmethylaminocarbonyl]butoxy}-3,4-dihydrocarbostyril]
LD50 (Acute Toxicity Test): > 1000 mg/kg | inhibition at 10 µM [1, 4]: 100% | inhibition at 1 µM [1, 5]: 10.2% | inhibition at 100 µM [2, 3]: 100% | inhibition at 10 µM [2, 4]: 72.1% | inhibition at 1 µM [2, 5]: 12.2%

CCC(O)CN(C(=O)CCCCOc1ccc2[nH]c(=O)ccc2c1)C1CCCCCCC1 (centres unmarked) [No. 9, 6-{4-[N-(2-Hydroxybutyl)-N-cyclooctylaminocarbonyl]butoxy}carbostyril]
LD50 (Acute Toxicity Test): > 1000 mg/kg | inhibition at 10 µM [1, 4]: 100% | inhibition at 1 µM [1, 5]: 100% | inhibition at 0.1 µM [1, 6]: 43.2% | inhibition at 100 µM [2, 3]: 100% | inhibition at 10 µM [2, 4]: 84.9% | inhibition at 1 µM [2, 5]: 40.1% | inhibition at 0.1 µM [2]: 5.6%

O=C1CCc2cc(OCCCCC(=O)N(CCO)c3ccccc3)ccc2N1 [No. 11, 6-{4-[N-(2-Hydroxyethyl)-N-phenylaminocarbonyl]butoxy}-3,4-dihydrocarbostyril]
LD50 (Acute Toxicity Test): > 1000 mg/kg | inhibition at 10 µM [1, 4]: 100% | inhibition at 1 µM [1, 5]: 33.9% | inhibition at 100 µM [2, 3]: 100% | inhibition at 10 µM [2, 4]: 49.5% | inhibition at 1 µM [2, 5]: 22.4%

O=C1CCc2cc(OCCCCC(=O)N(CCO)CC3CCCCO3)ccc2N1 (centres unmarked) [No. 13, 6-{4-[N-(2-Hydroxyethyl)-N-(2-tetrahydropyranylmethyl)aminocarbonyl]butoxy}-3,4-dihydrocarbostyril]
LD50 (Acute Toxicity Test): > 1000 mg/kg | inhibition at 10 µM [1, 4]: 81.7% | inhibition at 1 µM [1, 5]: 5.2% | inhibition at 100 µM [2, 3]: 100% | inhibition at 10 µM [2, 4]: 30.1% | inhibition at 1 µM [2, 5]: 5.3%

O=C(CCCOc1ccc2[nH]c(=O)ccc2c1)N1CCC(c2ccccc2)CC1 [No. 16, 6-[3-(4-Phenyl-1-piperidylcarbonyl)propoxy]carbostyril]
LD50 (Acute Toxicity Test): > 1000 mg/kg | inhibition at 10 µM [1, 4]: 40.8% | inhibition at 1 µM [1, 5]: 7.7% | inhibition at 100 µM [2, 3]: 100% | inhibition at 10 µM [2, 4]: 27.9% | inhibition at 1 µM [2, 5]: 4.9%

O=C1CCc2cc(OCCCC(=O)N3CCN(c4ccccc4)CC3)ccc2N1 [No. 17, 6-[3-(4-Phenyl-1-piperazinylcarbonyl)propoxy]-3,4-dihydrocarbostyril]
LD50 (Acute Toxicity Test): > 1000 mg/kg | inhibition at 10 µM [1, 4]: 37.8% | inhibition at 1 µM [1, 5]: 3.4% | inhibition at 100 µM [2, 3]: 100% | inhibition at 10 µM [2, 4]: 25.1% | inhibition at 1 µM [2, 5]: 4.3%

O=C1CCc2cc(OCCCC(=O)N3CCN(C4CCCCC4)CC3)ccc2N1 [No. 18, 6-[3-(4-Cyclohexyl-1-piperazinylcarbonyl)propoxy]-3,4-dihydrocarbostyril]
LD50 (Acute Toxicity Test): > 1000 mg/kg | inhibition at 10 µM [1, 4]: 45.6% | inhibition at 1 µM [1, 5]: 15.2% | inhibition at 100 µM [2, 3]: 100% | inhibition at 10 µM [2, 4]: 42.1% | inhibition at 1 µM [2, 5]: 7%

O=C(CCCOc1ccc2[nH]c(=O)ccc2c1)N(CCO)C1CCCC(O)C1 (centres unmarked) [No. 19, 6-{3-[N-(2-Hydroxyethyl)-N-(3-hydroxycyclohexyl)aminocarbonyl]propoxy}carbostyril]
LD50 (Acute Toxicity Test): > 1000 mg/kg | inhibition at 10 µM [1, 4]: 95.3% | inhibition at 1 µM [1, 5]: 47.5% | inhibition at 100 µM [2, 3]: 100% | inhibition at 10 µM [2, 4]: 63.2% | inhibition at 1 µM [2, 5]: 12%

COc1ccc(CCN(CCO)C(=O)CCCCOc2ccc3[nH]c(=O)ccc3c2)cc1OC [No. 20, 6-{4-[N-(2-Hydroxyethyl)-N-(β-3,4-dimethoxyphenethyl)aminocarbonyl]butoxy}carbostyril]
LD50 (Acute Toxicity Test): > 1000 mg/kg | inhibition at 10 µM [1, 4]: 82.6% | inhibition at 1 µM [1, 5]: 29.2% | inhibition at 100 µM [2, 3]: 100% | inhibition at 10 µM [2, 4]: 73.2% | inhibition at 1 µM [2, 5]: 28.8%

CC(=O)OCCCN(CC1CCCCO1)C(=O)CCCCOc1ccc2c(c1)CCC(=O)N2 (centres unmarked) [No. 21, 6-{4-[N-(3-Acetyloxypropyl)-N-(2-tetrahydropyranylmethyl)aminocarbonyl]butoxy}-3,4-dihydrocarbostyril]
LD50 (Acute Toxicity Test): > 1000 mg/kg | inhibition at 10 µM [1, 4]: 82.9% | inhibition at 1 µM [1, 5]: 34.2% | inhibition at 100 µM [2, 3]: 100% | inhibition at 10 µM [2, 4]: 60.6% | inhibition at 1 µM [2, 5]: 18.6%

O=C1CCc2cc(OCCCCC(=O)N(CCO)Cc3ccccc3)ccc2N1 [No. 22, 6-{4-[N-(2-Hydroxyethyl)-N-benzylaminocarbonyl]butoxy}-3,4-dihydrocarbostyril]
LD50 (Acute Toxicity Test): > 1000 mg/kg | inhibition at 10 µM [1, 4]: 49.2% | inhibition at 1 µM [1, 5]: 16.1% | inhibition at 100 µM [2, 3]: 100% | inhibition at 10 µM [2, 4]: 63.2% | inhibition at 1 µM [2, 5]: 28.8%

COCCN(C(=O)CCCCOc1ccc2[nH]c(=O)ccc2c1)C1CCCCC1 [No. 23, 6-{4-[N-(2-Methoxyethyl)-N-cyclohexylaminocarbonyl]butoxy}carbostyril]
LD50 (Acute Toxicity Test): > 1000 mg/kg | inhibition at 10 µM [1, 4]: 100% | inhibition at 1 µM [1, 5]: 90.5% | inhibition at 0.1 µM [1, 6]: 67% | inhibition at 100 µM [2, 3]: 100% | inhibition at 10 µM [2, 4]: 100% | inhibition at 1 µM [2, 5]: 91.9% | inhibition at 0.1 µM [2]: 40.4%

O=C1CCc2cc(OCCCC(=O)N(C3CCCCC3)C3CCCCC3Cl)ccc2N1 (centres unmarked) [No. 30, 6-{3-[N--Cyclohexyl-N--(2-chlorocyclohexyl)-aminocarbonyl]propoxy}-3,4-dihydrocarbostyril, reference compound]
Inhibition effect on collagen-induced aggregation [1, 3]: 91.5% | Inhibition effect on collagen-induced aggregation [1, 4]: 89.9% | Inhibition effect on collagen-induced aggregation [1, 5]: 50.3% | Inhibition effect on ADP-induced aggregation [2, 3]: 89.8% | Inhibition effect on ADP-induced aggregation [2, 4]: 82.9% | Inhibition effect on ADP-induced aggregation [2, 5]: 38.4%

O=C1CCc2cc(OCCCC(=O)Nc3c(Cl)cccc3Cl)ccc2N1 [No. 44, 6-[3-(o,o-Dichloroanilinocarbonyl)propoxy]-3,4-dihydrocarbostyril, reference compound]
inhibition at 100 µM [1, 3]: 95.1% | inhibition at 10 µM [1, 4]: 27.6% | inhibition at 100 µM [2, 3]: 36.8% | inhibition at 10 µM [2, 4]: 5.3%

CC(C)NC(=O)CCOc1ccc2c(c1)CCC(=O)N2 [No. 64, 6-(N--Isopropylaminocarbonylethoxy)-3,4-dihydrocarbostyril, reference compound]
Inhibition effect on collagen-induced aggregation [1, 3]: 17% | Inhibition effect on collagen-induced aggregation [1, 5]: 0% | Inhibition effect on collagen-induced aggregation [1, 6]: 0% | Inhibition effect on ADP-induced aggregation [2, 3]: 18% | Inhibition effect on ADP-induced aggregation [2, 4]: 13% | Inhibition effect on ADP-induced aggregation [2, 5]: 7%

O=C1CCc2cc(OCC(=O)N3CCOCC3)ccc2N1 [No. 65, 6-(Morpholinocarbonylmethoxy)-3,4-dihydrocarbostyril, reference compound]
inhibition at 100 µM [1, 3]: 5% | inhibition at 10 µM [1, 4]: 0% | inhibition at 1 µM [1, 5]: 0% | inhibition at 100 µM [2, 3]: 13% | inhibition at 10 µM [2, 4]: 6% | inhibition at 1 µM [2, 5]: 0%

CC(=O)Oc1ccccc1C(=O)O [No. 69, Aspirin, reference compound]
inhibition at 1 µM [1]: 7% | inhibition at 10 µM [1]: 9% | inhibition at 100 µM [1]: 65%
